ChEMBL document CHEMBL1139062, “Synthesis and biological evaluation of new conformationally biased integrin ligands based on a tetrahydroazoninone scaffold” (Bioorg Med Chem Lett, 2007)

What was measured:
Type in all cases: protein-complex assay
[1] = target: T1, Integrin alpha-V/beta-3 (Homo sapiens) (UniProt P05106+P06756); assay: Displacement of [125I]echistatin from integrin alpha-V-beta-3 receptor at 0.001 uM
[2] = target: T1, Integrin alpha-V/beta-3 (Homo sapiens); assay: Displacement of [125I]echistatin from integrin alpha-V-beta-3 receptor at 1 uM
[3] = target: T2, Integrin alpha-V/beta-5 (Homo sapiens) (UniProt P06756+P18084); assay: Displacement of [125I]echistatin from integrin alpha-V-beta-5 receptor at 1000 uM
[4] = target: T2, Integrin alpha-V/beta-5 (Homo sapiens); assay: Displacement of [125I]echistatin from integrin alpha-V-beta-5 receptor at […]
[5] = target: T1, Integrin alpha-V/beta-3 (Homo sapiens); assay: Displacement of [125I]echistatin from integrin alpha-V-beta-3 receptor at 10 uM
[6] = target: T1, Integrin alpha-V/beta-3 (Homo sapiens); assay: Displacement of [125I]echistatin from integrin alpha-V-beta-3 receptor at 0.1 uM
[7] = target: T1, Integrin alpha-V/beta-3 (Homo sapiens); assay: Displacement of [125I]echistatin from integrin alpha-V-beta-3 receptor at 0.01 uM

For `N=C(N)NCCC[C@@H]1NC(=O)CNC(=O)[C@@H](CC(=O)O)N[C@H]2CCC[C@H]3CC[C@H](C1=O)N3C2=O`, the inhibition [1] was 85%.

`CC12CC/C=C\CC(NC1=O)C(=O)N[C@H](CCCNC(=N)N)C(=O)NCC(=O)N[C@@H](CC(=O)O)C(=O)N2Cc1ccccc1` (stereo in doubt; 2a) was tested, and the inhibition [2] was 49%, the inhibition [3] was 13% and the inhibition [4] was 17%. For the same compound, the inhibition [5] was 48%.

Compound `CC12CC/C=C\CC(NC1=O)C(=O)N[C@H](CCCNC(=N)N)C(=O)NCC(=O)N[C@@H](CC(=O)O)C(=O)N2Cc1ccccc1` (stereo in doubt; 2b) has an inhibition [2] of 50%, an inhibition [3] of 13% and an inhibition [6] of 53%. It also gave an inhibition [1] of 5%, an inhibition [7] of 15% and an inhibition [4] of 15%. It also gave an inhibition [5] of 52%.

For `CC12CC/C=C\CC(NC1=O)C(=O)N[C@H](CCCNC(=N)N)C(=O)NCC(=O)N[C@@H](CC(=O)O)C(=O)N2` (stereo in doubt; 3a), the inhibition [2] was 30% and the inhibition [5] was 62%.

`CC12CC/C=C\CC(NC1=O)C(=O)N[C@H](CCCNC(=N)N)C(=O)NCC(=O)N[C@@H](CC(=O)O)C(=O)N2` (stereo in doubt; 3b) gave an inhibition [2] of 30% and an inhibition [5] of 62%.
